Molecules are shown by their SMILES.

The experiment addresses T1, IKZF3-GFP (Homo sapiens, UniProt Q96SW2+Q9UKT9).
T1 construct: expressed in transfected cells; host or cells: HEK293A (Invitrogen R70507), lentiviral transduction with pLenti6-IKZF3-GFP-Ires-RFP, blasticidin selection
The experiment is described as follows: IKZF3-GFP protein abundance flow cytometry assay in HEK293A cells. It counts as cell-based. Particulars: HEK293A IKZF3-GFP-iresRFP cells, 24 h; for DC50: GFP signal by flow cytometry; for IKZF3 deg Amax: % protein remaining at maximum degradation. Here is the method: BTK-GFP and IKZF3-GFP protein abundance flow cytometry assay in HEK293A cells:
Degradation of BTK or IKZF3 was measured in HEK293A cells (Invitrogen R70507) expressing either BTK-GFP and RFP or IKZF3-GFP and RFP from a stably integrated bicistronic BTK-GFP-iresRFP or IKZF3-GFP-iresRFP construct, respectively. Reduction of the GFP signal measured by flow cytometry served as readout for BTK or IKZF3 degradation after degrader treatment.
By analogy the bicistronic pLenti6-IKZF3-GFP-iresRFP was engineered by gateway cloning of IKZF3 from a pENTR221-IKZF3(STOP-Leu) construct into the previously described pLenti6-DEST-GFP-Ires-RFP vector using the LR Clonase kit (Invitrogen 11791-019) according to the manufacturer's manual. All vectors described have been sequenced for verification.
ii) Engineering of Stably Expressing 293A BTK-GFP-Ires-RFP and IKZF3-GFP-Ires-RFP Sensor Cells
293A BTK-GFP-Ires-RFP and IKZF3-GFP-ires-RFP sensor cells were generated by lentiviral vector transduction using the pLenti6-BTK-GFP-Ires-RFP or pLenti6-IKZF3-GFP-Ires-RFP sensor construct described before. Lentiviral particles were produced in HEK293FT cells (Invitrogen R70007) by co-transfection of 500 ng pLenti6-BTK-GFP-ires-RFP or pLenti6-IKZF3-GFP-Ires-RFP, 500 ng delta8.71 and 200 ng pVSVG diluted in 100 μl OptiMEM serum free medium (Invitrogen #11058-021) that was mixed after 5 min preincubation with 3 μl of Lipofectamine2000 (Invitrogen #11668-019) in 97 μl OptiMEM serum free medium. The mix was incubated for another 20 min at RT and then added on 1 ml of a freshly prepared suspension of HEK293FT cells in a well of a 6-well plate (concentration 1.2×10^6 cells/ml). 1 day after transfection, the medium was replaced with 1.5 ml of complete growth medium (DMEM high Glucose+10% FCS+1% L-Glutamine+1% NEAA+1% NaPyr.). 48 h post transfection supernatant containing viral transducing particles was collected and frozen at −80° C.
Two days before transduction with viral particles 1×10^5 HEK293A cells (Invitrogen R70507) were seeded in 2 ml growth medium in a well of a 6-well plate. Infection was performed with 90 μl of collected supernatant containing viral transducing particles in 1 ml medium including 8 μg/ml polybrene. 24 h post infection, stably transfected cells were selected with blasticidin at a concentration of 8 μg/ml.
Iii) Quantitative BTK-GFP and IKZF3-GFP Abundance Measurements
Stable HEK293A-BTK-GFP-iresRFP cells were maintained in complete growth medium (DMEM high Glucose+10% FCS+1% L-Glutamine+1% NEAA+1% NaPyr.) with passaging performed twice per week. On Day 0, HEK293A-BTK-GFP-iresRFP or HEK293A-IKZF3-GFP-iresRFP and HEK293A-iresRFP cells were seeded at 10,000 cells/well in a 96-well microtiter plate in 260 μl complete medium. On Day 1, cells were treated in duplicate with 10-point 1:3 dilution series of compound using the HP D300 Digital Dispenser (Tecan). DMSO concentrations were normalized across the plate to 0.1%. On Day 2, after 24 h of incubation at 37° C., treatment media was discarded, cells rinsed with 100 μl/well PBS and then detached using 40 μl trypsin/well for 5 min. Trypsin was neutralized with 100 μl/well PBS+20% FCS). Flow cytometry was performed on the samples using the BD FACS CANTO II (Becton Dickinson). Cell identification was then performed using forward (FSC) vs. side scatter (SSC) plots. […] Median GFP values for 5,000 single cells are used to determine BTK levels. Median GFP values from HEK293A-iresRFP are used as a background signal and thus defining 0% BTK signal. Median GFP values from DMSO treated HEK293A-BTK-GFP-iresRFP or HEK293A-IKZF3-GFP-iresRFP are used to define 100% BTK signal for subsequent DC50 curves (concentration at 50% BTK degradation).

T1 sequence (Q9UKT9 whole entry): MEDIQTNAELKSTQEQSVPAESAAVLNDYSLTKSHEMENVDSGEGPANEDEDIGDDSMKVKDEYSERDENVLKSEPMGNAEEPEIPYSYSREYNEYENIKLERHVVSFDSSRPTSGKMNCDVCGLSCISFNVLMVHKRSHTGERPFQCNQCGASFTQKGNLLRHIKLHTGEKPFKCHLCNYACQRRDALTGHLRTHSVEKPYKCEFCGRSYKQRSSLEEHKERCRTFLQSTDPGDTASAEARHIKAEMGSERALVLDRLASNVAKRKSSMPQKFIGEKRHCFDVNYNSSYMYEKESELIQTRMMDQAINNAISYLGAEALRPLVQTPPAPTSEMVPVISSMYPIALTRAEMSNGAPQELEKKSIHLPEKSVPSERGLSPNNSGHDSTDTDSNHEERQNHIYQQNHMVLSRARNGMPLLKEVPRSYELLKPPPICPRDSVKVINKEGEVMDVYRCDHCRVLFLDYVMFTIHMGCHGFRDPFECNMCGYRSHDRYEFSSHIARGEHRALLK
T1 sequence (Q96SW2 whole entry): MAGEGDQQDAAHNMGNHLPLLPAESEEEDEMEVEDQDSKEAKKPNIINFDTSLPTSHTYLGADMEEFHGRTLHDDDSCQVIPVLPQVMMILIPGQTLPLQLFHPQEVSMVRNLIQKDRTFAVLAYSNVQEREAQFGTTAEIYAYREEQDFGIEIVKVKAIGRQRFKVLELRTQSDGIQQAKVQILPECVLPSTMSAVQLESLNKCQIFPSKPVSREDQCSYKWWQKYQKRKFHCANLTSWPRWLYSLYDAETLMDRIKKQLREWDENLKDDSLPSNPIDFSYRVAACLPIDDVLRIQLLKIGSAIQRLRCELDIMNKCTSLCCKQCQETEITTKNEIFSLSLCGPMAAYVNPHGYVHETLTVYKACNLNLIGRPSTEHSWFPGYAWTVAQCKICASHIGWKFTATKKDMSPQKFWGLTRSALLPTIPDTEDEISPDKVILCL
T1 sequence (Q16531 whole entry partner): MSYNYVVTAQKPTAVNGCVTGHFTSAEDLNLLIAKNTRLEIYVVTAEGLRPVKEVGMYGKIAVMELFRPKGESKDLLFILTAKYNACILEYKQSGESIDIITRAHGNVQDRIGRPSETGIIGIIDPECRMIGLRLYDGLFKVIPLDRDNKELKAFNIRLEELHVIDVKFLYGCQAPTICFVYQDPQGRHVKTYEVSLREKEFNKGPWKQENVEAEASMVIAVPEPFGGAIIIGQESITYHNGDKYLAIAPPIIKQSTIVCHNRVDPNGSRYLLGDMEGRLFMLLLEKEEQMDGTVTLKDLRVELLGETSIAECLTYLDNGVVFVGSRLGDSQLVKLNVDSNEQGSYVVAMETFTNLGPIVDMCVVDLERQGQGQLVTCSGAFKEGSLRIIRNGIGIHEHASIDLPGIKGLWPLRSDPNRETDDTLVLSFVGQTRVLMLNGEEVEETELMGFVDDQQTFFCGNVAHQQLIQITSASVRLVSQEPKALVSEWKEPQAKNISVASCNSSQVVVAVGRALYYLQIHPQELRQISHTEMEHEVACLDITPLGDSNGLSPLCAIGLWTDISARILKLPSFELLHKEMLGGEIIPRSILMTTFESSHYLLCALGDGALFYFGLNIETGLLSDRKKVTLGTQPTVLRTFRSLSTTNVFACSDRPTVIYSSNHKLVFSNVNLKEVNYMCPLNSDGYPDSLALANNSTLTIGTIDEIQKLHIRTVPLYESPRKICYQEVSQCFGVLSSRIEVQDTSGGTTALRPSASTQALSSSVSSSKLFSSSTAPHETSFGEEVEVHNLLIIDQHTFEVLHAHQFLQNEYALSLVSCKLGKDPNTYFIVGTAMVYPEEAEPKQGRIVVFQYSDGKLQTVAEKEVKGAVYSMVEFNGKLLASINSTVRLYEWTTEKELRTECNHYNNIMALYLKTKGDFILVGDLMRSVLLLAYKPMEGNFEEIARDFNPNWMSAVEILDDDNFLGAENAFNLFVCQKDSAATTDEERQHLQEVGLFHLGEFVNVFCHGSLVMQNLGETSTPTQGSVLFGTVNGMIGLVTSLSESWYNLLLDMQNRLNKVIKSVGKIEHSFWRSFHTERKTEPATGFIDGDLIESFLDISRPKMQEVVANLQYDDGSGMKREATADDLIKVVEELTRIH

In the case of `Cc1c(NC(=O)c2ccc(C(C)(C)O)cc2F)cc(F)cc1-c1ncnc2[nH]c(-c3ccc(CCN4CCC5(CC4)CCN(C(=O)c4ccc(F)c(N6CCC(=O)NC6=O)c4)CC5)cc3)cc12` [Compound 47, N-(3-(6-(4-(2-(9-(3-(2,4-dioxotetrahydropyrimidin-1(2H)-yl)-4-fluorobenzoyl)-3,9-diazaspiro[5.5]undecan-3-yl)ethyl)phenyl)-7H-pyrrolo[2,3-d]pyrimidin-4-yl)-5-fluoro-2-methylphenyl)-2-fluoro-4-(2-hydroxypropan-2-yl)benzamide], the DC50 was over 1.1 µM and the “IKZF3 deg Amax” value is recorded as 99.7%.
For `COc1ccc(C(=O)N2CCC(OC3CCN(Cc4ccc(-c5cc6c(-c7cc(F)cc(NC(=O)c8ccc(C(C)(C)O)cc8F)c7C)ncnc6[nH]5)cc4)CC3)CC2)cc1N1CCC(=O)NC1=O` [Compound 8, N-(3-(6-(4-((4-((1-(3-(2,4-dioxotetrahydropyrimidin-1(2H)-yl)-4-methoxybenzoyl)piperidin-4-yl)oxyl)piperidin-1-yl)methyl)phenyl)-7H-pyrrolo[2,3-d]pyrimidin-4-yl)-5-fluoro-2-methylphenyl)-2-fluoro-4-(2-hydroxypropan-2-yl)benzamide] the same measures were over 2.6 µM and 103.3%.
For `COc1ccc(C(=O)N2CCN(C(=O)N3CCN(Cc4ccc(-c5cc6c(-c7cc(F)cc(NC(=O)c8ccc(C(C)(C)O)cc8F)c7C)ncnc6[nH]5)cc4)CC3)CC2)cc1N1CCC(=O)NC1=O` [Compound 22, N-(3-(6-(4-((4-(4-(3-(2,4-Dioxotetrahydropyrimidin-1(2H)-yl)-4-methoxybenzoyl)piperazine-1-carbonyl)piperazin-1-yl)methyl)phenyl)-7H-pyrrolo[2,3-d]pyrimidin-4-yl)-5-fluoro-2-methylphenyl)-2-fluoro-4-(2-hydroxypropan-2-yl)benzamide] the same measures were over 10 µM and 99.7%.
For `Cc1c(NC(=O)c2ccc(C(C)(C)O)cc2F)cc(F)cc1-c1ncnc2[nH]c(-c3ccc(CCN4CCC5(CC4)CCN(C(=O)c4cccc(N6CCC(=O)NC6=O)c4)CC5)cc3)cc12` [Compound 12, N-(3-(6-(4-(2-(9-(3-(2,4-Dioxotetrahydropyrimidin-1(2H)-yl)benzoyl)-3,9-diazaspiro[5,5]undecan-3-yl)ethyl)phenyl)-7H-pyrrolo[2,3-d]pyrimidin-4-yl)-5-fluoro-2-methylphenyl)-2-fluoro-4-(2-hydroxypropan-2-yl)benzamide] the same measures were over 1.1 µM and 100.4%.
In the case of `Cc1ccc(C(=O)N2CCC3(CCN(Cc4ccc(-c5cc6c(-c7cc(F)cc(NC(=O)c8ccc(C(C)(C)O)cc8F)c7C)ncnc6[nH]5)cc4)CC3)CC2)cc1N1CCC(=O)NC1=O` [Compound 27, N-(3-(6-(4-((9-(3-(2,4-Dioxotetrahydropyrimidin-1(2H)-yl)-4-methylbenzoyl)-3,9-diazaspiro[5.5]undecan-3-yl)methyl)phenyl)-7H-pyrrolo[2,3-d]pyrimidin-4-yl)-5-fluoro-2-methylphenyl)-2-fluoro-4-(2-hydroxypropan-2-yl)benzamide], the DC50 was over 1.1 µM and the “IKZF3 deg Amax” value is reported as 102.2%.
Regarding `COc1ccc(C(=O)NCCN2CCOC3(CCN(Cc4ccc(-c5cc6c(-c7cc(F)cc(NC(=O)c8ccc(C(C)(C)O)cc8F)c7C)ncnc6[nH]5)cc4)CC3)C2)cc1N1CCC(=O)NC1=O` [Compound 39, N-(3-(6-(4-((4-(2-(3-(2,4-dioxotetrahydropyrimidin-1(2H)-yl)-4-methoxybenzamido)ethyl)-1-oxa-4,9-diazaspiro[5.5]undecan-9-yl)methyl)phenyl)-7H-pyrrolo[2,3-d]pyrimidin-4-yl)-5-fluoro-2-methylphenyl)-2-fluoro-4-(2-hydroxypropan-2-yl)benzamide], the DC50 is over 10 µM and the “IKZF3 deg Amax” value was determined as 94.5%.
For `COc1ccc(C(=O)N2CCC3(CC2)CCN(C(C)(C)Cc2ccc(-c4cc5c(-c6cc(F)cc(NC(=O)c7ccc(C(C)(C)O)cc7F)c6C)ncnc5[nH]4)cc2)CC3)cc1N1CCC(=O)NC1=O` [Compound 20, N-(3-(6-(4-(2-(9-(3-(2,4-Dioxotetrahydropyrimidin-1(2H)-yl)-4-methoxybenzoyl)-3,9-diazaspiro[5.5]undecan-3-yl)-2-methylpropyl)phenyl)-7H-pyrrolo[2,3-d]pyrimidin-4-yl)-5-fluoro-2-methylphenyl)-2-fluoro-4-(2-hydroxypropan-2-yl)benzamide] the same measures were over 1.1 µM and 93.3%.
For `COc1ccc(C(=O)NCCN2CCC3(CC2)CCN(Cc2ccc(-c4cc5c(-c6cc(F)cc(NC(=O)c7ccc(C(C)(C)O)cc7F)c6C)ncnc5[nH]4)cc2)CC3)cc1N1CCC(=O)NC1=O` [Compound 44, N-(3-(6-(4-((9-(2-(3-(2,4-dioxotetrahydropyrimidin-1(2H)-yl)-4-methoxybenzamido)ethyl)-3,9-diazaspiro[5.5]undecan-3-yl)methyl)phenyl)-7H-pyrrolo[2,3-d]pyrimidin-4-yl)-5-fluoro-2-methylphenyl)-2-fluoro-4-(2-hydroxypropan-2-yl)benzamide] the same measures were over 3.3 µM and 99.7%.
In the case of `Cc1c(NC(=O)c2ccc(C(C)(C)O)cc2F)cc(F)cc1-c1ncnc2[nH]c(-c3ccc(CN4CCC5(CC4)CCN(C(=O)c4ccc(F)c(N6CCC(=O)NC6=O)c4)CC5)cc3)cc12` [Compound 14, N-(3-(6-(4-((9-(3-(2,4-Dioxotetrahydropyrimidin-1(2H)-yl)-4-fluorobenzoyl)-3,9-diazaspiro[5.5]undecan-3-yl)methyl)phenyl)-7H-pyrrolo[2.3-d]pyrimidin-4-yl)-5-fluoro-2-methylphenyl)-2-fluoro-4-(2-hydroxypropan-2-yl)benzamide], the DC50 was over 1.1 µM and the “IKZF3 deg Amax” value is reported as 100.2%.
Regarding `COc1ccc(C(=O)N2CCC(CN3CCC(Oc4ccc(-c5cc6c(-c7cc(F)cc(NC(=O)c8ccc(C(C)(C)O)cc8F)c7C)ncnc6[nH]5)cc4)CC3)CC2)cc1N1CCC(=O)NC1=O` [Compound 19, N-(3-(6-(4-((1-((1-(3-(2,4-Dioxotetrahydropyrimidin-1(2H)-yl)-4-methoxybenzoyl)piperidin-4-yl)methyl)piperidin-4-yl)oxyl)phenyl)-7H-pyrrolo[2,3-d]pyrimidin-4-yl)-5-fluoro-2-methylphenyl)-2-fluoro-4-(2-hydroxypropan-2-yl)benzamide], the DC50 was over 10 µM and the “IKZF3 deg Amax” value was 100.5%.
For `Cc1c(NC(=O)c2ccc(C(C)(C)O)cc2F)cc(F)cc1-c1ncnc2[nH]c(-c3ccc(COC4CCN(CCC5CCN(C(=O)c6ccc(F)c(N7CCC(=O)NC7=O)c6)CC5)CC4)cc3)cc12` [Compound 6, N-(3-(6-(4-(((1-(2(1-(3-(2,4-dioxotetrahydropyrimidin-1(2H)-yl)-4-fluorobenzoyl)piperidin-4-yl)ethyl)piperidin-4-yl)oxyl)methyl)phenyl)-7H-pyrrolo[2,3-d]pyrimidin-4-yl)-5-fluoro-2-methylphenyl)-2-fluoro-4-(2-hydroxypropan-2-yl)benzamide] the same measures were over 10 µM and 100.8%.

The values above are taken from patent publication US12441733B2, “Substituted 2,4-dioxotetrahydropyrimidines as intermediates in the synthesis of bruton's tyrosine kinase inhibitors” (Novartis AG, priority 2018, dated 2025).
